Test results reported in patent publication US12503707B2, “Methods, plants and compositions for overcoming nutrient suppression of mycorrhizal symbiosis” (Cambridge Enterprise Limited, priority 2020, dated 2025).
Each block holds one compound with its values, some of them ahead of it.

What was measured:
[1] = system: M. truncatula LysM receptor-like kinase (LysM RLK) genes; assay: LysM RLK gene expression by qRT-PCR after GR24 and/or TIS108 treatment; format: in vivo, Medicago truncatula; conditions: BNM plates 4 days
Procedure: FIGS. 24A-24E show the effects of nutrient starvation and strigolactone and/or karrikin treatment on M. truncatula RLK gene expression levels. […] As indicated from left to right above the heat map, M. truncatula was grown under limiting nitrate (−N, 0 mM NO3^− and 3.75 mM PO4^−), limiting phosphate (−P, 5 mM NO3^− and 0.0075 mM PO4^−), or limiting nitrate and phosphate (−N−P, 0 mM NO3^− and 0.0075 mM PO4^−). The relative expression level of each condition is normalized to expression when plants were grown under replete nitrate and replete phosphate (+N+P, 5 mM NO3^− and 3.75 mM PO4^−). As indicated from left to right below the heatmap, expression was measured either 5, 10, or 15 days after germination (“DAG”). The color scale indicates the relative expression levels, with black representing the lowest expression and light grey representing the highest expression. FIGS. 24B-24E show expression of M. truncatula genes after seedlings were grown on BNM plates for 4 days, and then treated with either DMSO (mock), 0.1 μM synthetic strigolactone analog GR24, 1 μM strigolactone-biosynthesis inhibitor TIS108, or both (0.1 μM GR24 and 1 μM TIS108) for 24 hours, as indicated on the x-axis. […] In each of FIGS. 24B-24E gene expression was determined by RT-qPCR, relative expression levels is on the y-axis, and the asterisks indicate the relative level of statistical significance as determined by a Student's t-test.
Gene expression was measured by qRT-PCR (FIGS. 2A-2B). Plants were grown on modified BNM plates (described above) with 100 nM AVG for four days, the plants were then carefully transferred to liquid BNM with the appropriate nutrient concentrations along with COs, PGN, flg22 and SmLCO, at a final concentration of 10^−7 M COs, 10^−7 M flg22, 0.4 mg/ml PGN and 10^−8 M SmLCO. After incubation for 6 h, plant roots were harvested and frozen in liquid nitrogen. […] An aliquot of each total RNA sample was used to determine RNA concentration and purity assessed on the NanoDrop ND-1000 spectral photometer (Peglab, Erlangen, Germany). RNA integrity was analyzed on the 2100 Bioanalyzer using RNA 6000 Nano LabChip Kits (Agilent Technologies). […] Gene expression was determined by an ABI 7500 using a SYBR green PCR master mix (Bio-Rad). […] Expression data were analyzed from the average of threshold cycle (CT) value, using an M. truncatula endogenous Histone 2A (H2A) gene as reference and fold induction calculated for treatment of elicitors relative to treatment with DMSO. […]
Gene expression was measured by RNA-seq. […] M. truncatula RLK gene expression levels were measured by qRT-PCR (FIGS. 24B-24E), as described in Example 1.

[2] = system: M. truncatula root epidermal cells; assay: Nuclear calcium imaging after CO/LCO treatment; format: cell-based, Medicago truncatula; conditions: lateral roots; −N−P and +N+P conditions
Procedure: For calcium analyses M. truncatula seedlings were grown on Buffered Nodulation Media (BNM) agar with 100 nM Aminoethoxyvinylglycine (AVG; Sigma-Aldrich) until lateral roots emerged (FIGS. 1A-1B). […] The lateral roots were fixed in a small chamber made on a cover glass using vacuum grease, with 500 μl of BNM buffer. The roots were then treated with COs (CO4 or CO8), LCOs (non-sulfated LCO (NS-LCO) or a LCO derived from Sinorhizobium meliloti (SmLCO)), at the concentrations indicated in FIGS. 1A-1B. Recordings were collected on an inverted epifluorescence microscope (model TE2000; Nikon). Yellow cameleon YC3.6 was excited with an 458-nm laser and imaged using emission filters 476-486 nm for CFP and 529-540 nm for YFP. The calcium images were collected every 5 seconds with 1 second exposure and analyzed using Metafluor (Molecular Devices). Calcium traces used the intensity ratio of YFP to CFP. For better visualization of calcium signals, the traces were flattened to a single axis by subtracting the values with moving average as the following formula:
[formula] Where Sf is the flattened signal, So is the original signal, and MA is the moving average of the value. For each element i, MA is calculated as:
[formula] where m is the arbitrary number of points to calculate the average, w=[m/2] and xj is the signal at point j. M. truncatula Gene Expression

[3] = system: R. irregularis colonization of H. vulgare; assay: Mycorrhizal colonization assay with R. irregularis; format: in vivo, Hordeum vulgare; conditions: 0.1 μM GR24 twice a week
Procedure: FIGS. 14A-14D provide the effects of treating H. vulgare plants with a strigolactone or with both a strigolactone and a CEP peptide. […] Plants were grown under high nitrate and high phosphate (5 mM NO3^− and 0.5 mM PO4^−) and cells were treated with 10^−7 M SmLCO. The top trace represents cells without any additional treatment, the middle trace represents cells that were pre-treated with 1 μM 5-deoxystrigol, and the bottom trace represents cells that were pre-treated with 1 μM 5-deoxystrigol and 1 μM CEP3. The scale bar indicates a span of 10 minutes, and the fractions indicate the number of cells that responded over the total number of cells analyzed. FIGS. 14B-14C provide the level of mycorrhizal colonization of H. vulgare when treated with the synthetic strigolactone analog GR24 under different nutrient conditions, as determined in two separate experiments. In FIG. 14B, colonization was measured 7 weeks post inoculation, and the x-axis indicates the nutrient conditions tested, and whether the plants were treated with GR24. […] In FIG. 14C, colonization was measured 6 weeks post inoculation, and the x-axis indicates the nutrient conditions tested, and whether the plants were treated with GR24. […] In FIGS. 14B-14C, the y-axis represents the percentage of roots colonized by mycorrhizal fungi, and the shading of each bar represents the fungal structure quantified. […]

[4] = then 24 hours, 0.1 μM GR24, 1 μM TIS108

LysM RLK gene expression compared to mock treatment ([1]; then 1 μM TIS108 for 24 hours): either the same or lower
SMILES: O=C(c1ccccc1)C(CCCCOc1ccccc1)n1cncn1 (centres unmarked) [TIS108]

SMILES: CC(=O)N[C@H]1[C@H](O[C@H]2[C@H](O)[C@@H](NC(C)=O)C(O)O[C@@H]2CO)O[C@H](CO)[C@@H](O[C@@H]2O[C@H](CO)[C@@H](O[C@@H]3O[C@H](CO)[C@@H](O)[C@H](O)[C@H]3NC(C)=O)[C@H](O)[C@H]2NC(C)=O)[C@@H]1O (some centres unmarked) [CO4]
nuclear symbiotic calcium oscillations (Cells spiking) [2]: promoted nuclear symbiotic oscillations

SMILES: CC(=O)N[C@H]1[C@H](O[C@H]2[C@H](O)[C@@H](NC(C)=O)[C@H](O[C@H]3[C@H](O)[C@@H](NC(C)=O)[C@H](O[C@H]4[C@H](O)[C@@H](NC(C)=O)C(O)O[C@@H]4CO)O[C@@H]3CO)O[C@@H]2CO)O[C@H](CO)[C@@H](O[C@@H]2O[C@H](CO)[C@@H](O[C@@H]3O[C@H](CO)[C@@H](O[C@@H]4O[C@H](CO)[C@@H](O[C@@H]5O[C@H](CO)[C@@H](O)[C@H](O)[C@H]5NC(C)=O)[C@H](O)[C@H]4NC(C)=O)[C@H](O)[C@H]3NC(C)=O)[C@H](O)[C@H]2NC(C)=O)[C@@H]1O (some centres unmarked) [CO8]
nuclear symbiotic calcium oscillations (Cells spiking) [2]: promoted nuclear symbiotic oscillations

MtKUF1 expression compared to mock treatment [1, 4]: significantly increased | MtLYK8 expression compared to mock treatment [1, 4]: significantly increased | MtLYK10 expression compared to mock treatment [1, 4]: significantly increased
SMILES: CC1=C[C@H](O/C=C2/C(=O)O[C@@H]3c4ccccc4C[C@H]23)OC1=O [GR24]
promotion of mycorrhizal colonization ([3]; 7 weeks post inoculation, no inhibitory effect of high phosphate seen): could not be observed | mycorrhizal colonization ([3]; high phosphate (500 μM) and low nitrate (0.5 mM), 6 weeks post inoculation): promoted mycorrhizal colonization
